From ChEMBL document CHEMBL1155953, “Synthesis and biological evaluation of C-12' substituted vinflunine derivatives” (Bioorg Med Chem Lett, 2008)

system: A549; assay: Cytotoxicity against human A549 cells by SRB assay; type: functional, cell-based

Row | SMILES | IC50
1 | CC[C@]12C=CCN3CC[C@@]4(c5cc([C@@]6(C(=O)OC)C[C@H]7C[C@@H](C(C)(F)F)CN(Cc8c6[nH]c6ccc(-c9ccoc9)cc86)C7)c(OC)cc5N(C)[C@H]4[C@@](O)(C(=O)OC)[C@@H]1OC(C)=O)[C@@H]32 | 2.28 µM
2 | CC[C@]12C=CCN3CC[C@@]4(c5cc([C@@]6(C(=O)OC)C[C@H]7C[C@@H](C(C)(F)F)CN(CCc8c6[nH]c6ccc(C#N)cc86)C7)c(OC)cc5N(C)[C@H]4[C@@](O)(C(=O)OC)[C@@H]1OC(C)=O)[C@@H]32 | 0.29 µM
3 | CC[C@]12C=CCN3CC[C@@]4(c5cc([C@@]6(C(=O)OC)C[C@H]7C[C@@H](C(C)(F)F)CN(Cc8c6[nH]c6ccc(NC(=O)N(C)C)cc86)C7)c(OC)cc5N(C)[C@H]4[C@@](O)(C(=O)OC)[C@@H]1OC(C)=O)[C@@H]32 | > 100 µM
4 | CC[C@]12C=CCN3CC[C@@]4(c5cc([C@@]6(C(=O)OC)C[C@H]7C[C@@H](C(C)(F)F)CN(CCc8c6[nH]c6ccc(C(C)=O)cc86)C7)c(OC)cc5N(C)[C@H]4[C@@](O)(C(=O)OC)[C@@H]1OC(C)=O)[C@@H]32 | 4.72 µM
5 | CCC(=O)c1ccc2[nH]c3c(c2c1)CN1C[C@H](C[C@@H](C(C)(F)F)C1)C[C@]3(C(=O)OC)c1cc2c(cc1OC)N(C)[C@H]1[C@@](O)(C(=O)OC)[C@H](OC(C)=O)[C@]3(CC)C=CCN4CC[C@]21[C@@H]43 | 17.4 µM
6 | CC[C@]12C=CCN3CC[C@@]4(c5cc([C@@]6(C(=O)OC)C[C@H]7C[C@@H](C(C)(F)F)CN(Cc8c6[nH]c6ccc(C9CC9)cc86)C7)c(OC)cc5N(C)[C@H]4[C@@](O)(C(=O)OC)[C@@H]1OC(C)=O)[C@@H]32 | 0.12 µM
7 | CCOC(=O)c1ccc2[nH]c3c(c2c1)CN1C[C@H](C[C@@H](C(C)(F)F)C1)C[C@]3(C(=O)OC)c1cc2c(cc1OC)N(C)[C@H]1[C@@](O)(C(=O)OC)[C@H](OC(C)=O)[C@]3(CC)C=CCN4CC[C@]21[C@@H]43 | 1.03 µM
8 | CCCCc1ccc2[nH]c3c(c2c1)CN1C[C@H](C[C@@H](C(C)(F)F)C1)C[C@]3(C(=O)OC)c1cc2c(cc1OC)N(C)[C@H]1[C@@](O)(C(=O)OC)[C@H](OC(C)=O)[C@]3(CC)C=CCN4CC[C@]21[C@@H]43 | 1.88 µM
9 | CCNC(=S)Nc1ccc2[nH]c3c(c2c1)CN1C[C@H](C[C@@H](C(C)(F)F)C1)C[C@]3(C(=O)OC)c1cc2c(cc1OC)N(C)[C@H]1[C@@](O)(C(=O)OC)[C@H](OC(C)=O)[C@]3(CC)C=CCN4CC[C@]21[C@@H]43 | 5.68 µM
10 | CC[C@]12C=CCN3CC[C@@]4(c5cc([C@@]6(C(=O)OC)C[C@H]7C[C@@H](C(C)(F)F)CN(Cc8c6[nH]c6ccc(NC(=O)N9CCOCC9)cc86)C7)c(OC)cc5N(C)[C@H]4[C@@](O)(C(=O)OC)[C@@H]1OC(C)=O)[C@@H]32 | > 100 µM
11 | CC[C@]12C=CCN3CC[C@@]4(c5cc([C@@]6(C(=O)OC)C[C@H]7C[C@@H](C(C)(F)F)CN(Cc8c6[nH]c6ccc(-c9ccc(F)cc9)cc86)C7)c(OC)cc5N(C)[C@H]4[C@@](O)(C(=O)OC)[C@@H]1OC(C)=O)[C@@H]32 | 2.56 µM
12 | CC[C@]12C=CCN3CC[C@@]4(c5cc([C@@]6(C(=O)OC)C[C@H]7C[C@@H](C(C)(F)F)CN(Cc8c6[nH]c6ccc(-c9ccc(Cl)cc9)cc86)C7)c(OC)cc5N(C)[C@H]4[C@@](O)(C(=O)OC)[C@@H]1OC(C)=O)[C@@H]32 | 1.17 µM
13 | CCc1ccc2[nH]c3c(c2c1)CCN1C[C@H](C[C@@H](C(C)(F)F)C1)C[C@]3(C(=O)OC)c1cc2c(cc1OC)N(C)[C@H]1[C@@](O)(C(=O)OC)[C@H](OC(C)=O)[C@]3(CC)C=CCN4CC[C@]21[C@@H]43 | 0.92 µM
14 | CC[C@]12C=CCN3CC[C@@]4(c5cc([C@@]6(C(=O)OC)C[C@H]7C[C@@H](C(C)(F)F)CN(Cc8c6[nH]c6ccc(Nc9ccccc9)cc86)C7)c(OC)cc5N(C)[C@H]4[C@@](O)(C(=O)OC)[C@@H]1OC(C)=O)[C@@H]32 | 1.86 µM
15 | CC[C@]12C=CCN3CC[C@@]4(c5cc([C@@]6(C(=O)OC)C[C@H]7C[C@@H](C(C)(F)F)CN(CCc8c6[nH]c6ccc(NC(C)=O)cc86)C7)c(OC)cc5N(C)[C@H]4[C@@](O)(C(=O)OC)[C@@H]1OC(C)=O)[C@@H]32 | 41 µM
16 | CC[C@]12C=CCN3CC[C@@]4(c5cc([C@@]6(C(=O)OC)C[C@H]7C[C@@H](C(C)(F)F)CN(Cc8c6[nH]c6ccc(C(=O)C9CC9)cc86)C7)c(OC)cc5N(C)[C@H]4[C@@](O)(C(=O)OC)[C@@H]1OC(C)=O)[C@@H]32 | 4.45 µM
17 | CC[C@]12C=CCN3CC[C@@]4(c5cc([C@@]6(C(=O)OC)C[C@H]7C[C@@H](C(C)(F)F)CN(Cc8c6[nH]c6ccc(C(=O)OC(C)C)cc86)C7)c(OC)cc5N(C)[C@H]4[C@@](O)(C(=O)OC)[C@@H]1OC(C)=O)[C@@H]32 | 3.26 µM
18 | CC[C@]12C=CCN3CC[C@@]4(c5cc([C@@]6(C(=O)OC)C[C@H]7C[C@@H](C(C)(F)F)CN(Cc8c6[nH]c6ccc(-c9ccc(C#N)cc9)cc86)C7)c(OC)cc5N(C)[C@H]4[C@@](O)(C(=O)OC)[C@@H]1OC(C)=O)[C@@H]32 | 2.5 µM
19 | CC[C@]12C=CCN3CC[C@@]4(c5cc([C@@]6(C(=O)OC)C[C@H]7C[C@@H](C(C)(F)F)CN(CCc8c6[nH]c6ccc(NS(C)(=O)=O)cc86)C7)c(OC)cc5N(C)[C@H]4[C@@](O)(C(=O)OC)[C@@H]1OC(C)=O)[C@@H]32 | 0.32 µM

Row | SMILES | IC50
20 | CC[C@]12C=CCN3CC[C@@]4(c5cc([C@@]6(C(=O)OC)C[C@H]7C[C@@H](C(C)(F)F)CN(Cc8c6[nH]c6ccc(NC(=S)NC9CC9)cc86)C7)c(OC)cc5N(C)[C@H]4[C@@](O)(C(=O)OC)[C@@H]1OC(C)=O)[C@@H]32 | 27.5 µM
21 | C#Cc1ccc2[nH]c3c(c2c1)CCN1C[C@H](C[C@@H](C(C)(F)F)C1)C[C@]3(C(=O)OC)c1cc2c(cc1OC)N(C)[C@H]1[C@@](O)(C(=O)OC)[C@H](OC(C)=O)[C@]3(CC)C=CCN4CC[C@]21[C@@H]43 | 0.05 µM
22 | CC[C@]12C=CCN3CC[C@@]4(c5cc([C@@]6(C(=O)OC)C[C@H]7C[C@@H](C(C)(F)F)CN(CCc8c6[nH]c6ccc(N9CCCC9)cc86)C7)c(OC)cc5N(C)[C@H]4[C@@](O)(C(=O)OC)[C@@H]1OC(C)=O)[C@@H]32 | 0.64 µM
23 | CC[C@]12C=CCN3CC[C@@]4(c5cc([C@@]6(C(=O)OC)C[C@H]7C[C@@H](C(C)(F)F)CN(Cc8c6[nH]c6ccc(-c9ccccc9Cl)cc86)C7)c(OC)cc5N(C)[C@H]4[C@@](O)(C(=O)OC)[C@@H]1OC(C)=O)[C@@H]32 | 1.01 µM
24 | CC[C@]12C=CCN3CC[C@@]4(c5cc([C@@]6(C(=O)OC)C[C@H]7C[C@@H](C(C)(F)F)CN(Cc8c6[nH]c6ccc(-c9ccccc9C(F)(F)F)cc86)C7)c(OC)cc5N(C)[C@H]4[C@@](O)(C(=O)OC)[C@@H]1OC(C)=O)[C@@H]32 | 0.29 µM
25 | CC[C@]12C=CCN3CC[C@@]4(c5cc([C@@]6(C(=O)OC)C[C@H]7C[C@@H](C(C)(F)F)CN(CCc8c6[nH]c6ccc(C(=O)OC)cc86)C7)c(OC)cc5N(C)[C@H]4[C@@](O)(C(=O)OC)[C@@H]1OC(C)=O)[C@@H]32 | 8.73 µM
26 | CC[C@]12C=CCN3CC[C@@]4(c5cc([C@@]6(C(=O)OC)C[C@H]7C[C@@H](C(C)(F)F)CN(CCc8c6[nH]c6ccc(C)cc86)C7)c(OC)cc5N(C)[C@H]4[C@@](O)(C(=O)OC)[C@@H]1OC(C)=O)[C@@H]32 | 0.037 µM
27 | CC[C@]12C=CCN3CC[C@@]4(c5cc([C@@]6(C(=O)OC)C[C@H]7C[C@@H](C(C)(F)F)CN(Cc8c6[nH]c6ccc(NC(=O)C(F)(F)F)cc86)C7)c(OC)cc5N(C)[C@H]4[C@@](O)(C(=O)OC)[C@@H]1OC(C)=O)[C@@H]32 | 1.81 µM
28 | CC[C@]12C=CCN3CC[C@@]4(c5cc([C@@]6(C(=O)OC)C[C@H]7C[C@@H](C(C)(F)F)CN(Cc8c6[nH]c6ccc(-c9ccc(F)cc9F)cc86)C7)c(OC)cc5N(C)[C@H]4[C@@](O)(C(=O)OC)[C@@H]1OC(C)=O)[C@@H]32 | 1.02 µM
29 | CC[C@]12C=CCN3CC[C@@]4(c5cc([C@@]6(C(=O)OC)C[C@H]7C[C@@H](C(C)(F)F)CN(Cc8c6[nH]c6ccc(NC(=O)C(Cl)Cl)cc86)C7)c(OC)cc5N(C)[C@H]4[C@@](O)(C(=O)OC)[C@@H]1OC(C)=O)[C@@H]32 | 0.2 µM
30 | CC[C@]12C=CCN3CC[C@@]4(c5cc([C@@]6(C(=O)OC)C[C@H]7C[C@@H](C(C)(F)F)CN(Cc8c6[nH]c6ccc(C(=O)OCc9ccccc9)cc86)C7)c(OC)cc5N(C)[C@H]4[C@@](O)(C(=O)OC)[C@@H]1OC(C)=O)[C@@H]32 | 0.28 µM
31 | CC[C@]12C=CCN3CC[C@@]4(c5cc([C@@]6(C(=O)OC)C[C@H]7C[C@@H](C(C)(F)F)CN(CCc8c6[nH]c6ccc(-c9ccc(C)cc9)cc86)C7)c(OC)cc5N(C)[C@H]4[C@@](O)(C(=O)OC)[C@@H]1OC(C)=O)[C@@H]32 | 0.56 µM
32 | CC[C@]12C=CCN3CC[C@@]4(c5cc([C@@]6(C(=O)OC)C[C@H]7C[C@@H](C(C)(F)F)CN(Cc8c6[nH]c6ccc(NC(=O)OC)cc86)C7)c(OC)cc5N(C)[C@H]4[C@@](O)(C(=O)OC)[C@@H]1OC(C)=O)[C@@H]32 | 0.42 µM
33 | CC[C@]12C=CCN3CC[C@@]4(c5cc([C@@]6(C(=O)OC)C[C@H]7C[C@@H](C(C)(F)F)CN(CCc8c6[nH]c6ccc(-c9ccccc9)cc86)C7)c(OC)cc5N(C)[C@H]4[C@@](O)(C(=O)OC)[C@@H]1OC(C)=O)[C@@H]32 | 2.16 µM
34 | C=CCNc1ccc2[nH]c3c(c2c1)CN1C[C@H](C[C@@H](C(C)(F)F)C1)C[C@]3(C(=O)OC)c1cc2c(cc1OC)N(C)[C@H]1[C@@](O)(C(=O)OC)[C@H](OC(C)=O)[C@]3(CC)C=CCN4CC[C@]21[C@@H]43 | 0.51 µM
35 | CC[C@]12C=CCN3CC[C@@]4(c5cc([C@@]6(C(=O)OC)C[C@H]7C[C@@H](C(C)(F)F)CN(Cc8c6[nH]c6ccc(-c9ccsc9)cc86)C7)c(OC)cc5N(C)[C@H]4[C@@](O)(C(=O)OC)[C@@H]1OC(C)=O)[C@@H]32 | 3 µM
36 | CC[C@]12C=CCN3CC[C@@]4(c5cc([C@@]6(C(=O)OC)C[C@H]7C[C@@H](C(C)(F)F)CN(Cc8c6[nH]c6ccc(NC(N)=O)cc86)C7)c(OC)cc5N(C)[C@H]4[C@@](O)(C(=O)OC)[C@@H]1OC(C)=O)[C@@H]32 | > 100 µM
37 | CC[C@]12C=CCN3CC[C@@]4(c5cc([C@@]6(C(=O)OC)C[C@H]7C[C@@H](C(C)(F)F)CN(Cc8c6[nH]c6ccc(N=[N+]=[N-])cc86)C7)c(OC)cc5N(C)[C@H]4[C@@](O)(C(=O)OC)[C@@H]1OC(C)=O)[C@@H]32 | 0.16 µM
38 | CC[C@]12C=CCN3CC[C@@]4(c5cc([C@@]6(C(=O)OC)C[C@H]7C[C@@H](C(C)(F)F)CN(Cc8c6[nH]c6ccc(NC(=O)NC)cc86)C7)c(OC)cc5N(C)[C@H]4[C@@](O)(C(=O)OC)[C@@H]1OC(C)=O)[C@@H]32 | 35.1 µM
